The target of series [1] is Populus alba isoprene synthase, P. alba variant 2 (Populus alba, UniProt Q50L36). The series is classed as biochemical. The conditions noted are these: substrate DMAPP; 34° C.; Avg Value.
In series [2] the target is Populus alba isoprene synthase, P. alba variant 1 (Populus alba, UniProt Q50L36). The series is classed as biochemical. The following applies: substrate DMAPP; 34° C.; Avg Value.
Series [3] deals with E. coli expressing P. alba variant 1 IspS. Kind of series: DMAPP toxicity relief: growth in presence of MVA. The conditions noted are these: 15 to 75 mM MVA; FIG. 13.
Series [4] has as its system E. coli expressing A. hypogaea IspS. Kind of series: DMAPP toxicity relief: growth in presence of MVA. The conditions noted are these: FIG. 13.
Series [5] deals with E. coli expressing P. alba variant 2 IspS.
Series [6] deals with E. coli expressing P. alba variant 3 IspS. In words: DMAPP toxicity relief: growth in presence of MVA. The conditions noted are these: FIG. 13.
Substrate in series [7]: CC(C)=CCOP(=O)(O)OP(=O)(O)O
Kind of series: purified protein, by the assay type. The conditions noted are these: other: substrate DMAPP, 34° C., Avg Value.

This is an account of results in patent US8895277B2, “Legume isoprene synthase for production of isoprene” (Danisco US Inc., priority 2012, dated 2014).

As usually defined, the Km is the concentration of substrate that gives half-maximal velocity. Regarding `CC(C)=CCOP(=O)(O)OP(=O)(O)O` [DMAPP, 3,3-dimethylallyl diphosphate], the Michaelis constant (Km) in series [1] stood at 2880 µM; in series [2], 2790 µM.
Take `C[C@@](O)(CCO)CC(=O)O` [MVA, mevalonic acid]: in series [3], the “Growth inhibition by MVA” value was “growth was inhibited at any concentration of MVA tested”. The “MVA concentration at which significant growth was seen” value in series [4] is 15 to 45 mM. Also, in series [5], the “MVA concentration at which growth was inhibited” value is “higher than 15 mM”. The “MVA concentration at which growth was partially inhibited” value in series [6] is recorded as “at least 30 mM”.

B1: Populus alba isoprene synthase (P. alba IspS), wild type (WT) (Populus alba) (protein)
chain: MEARRSANYEPNSWDYDYLLSSDTDESIEVYKDKAKKLEAEVRREINNEKAEFLTLLELIDNVQRLGLGYRFESDIRGALDRFVSSGGFDAVTKTSLHGTALSFRLLRQHGFEVSQEAFSGFKDQNGNFLENLKEDIKAILSLYEASFLALEGENILDEAKVFAISHLKELSEEKIGKELAEQVNHALELPLHRRTQRLEAVWSIEAYRKKEDANQVLLELAILDYNMIQSVYQRDLRETSRWWRRVGLATKLHFARDRLIESFYWAVGVAFEPQYSDCRNSVAKMFSFVTIIDDIYDVYGTLDELELFTDAVERWDVNAINDLPDYMKLCFLALYNTINEIAYDNLKDKGENILPYLTKAWADLCNAFLQEAKWLYNKSTPTFDDYFGNAWKSSSGPLQLVFAYFAVVQNIKKEEIENLQKYHDTISRPSHIFRLCNDLASASAEIARGETANSVSCYMRTKGISEELATESVMNLIDETWKKMNKEKLGGSLFAKPFVETAINLARQSHCTYHNGDAHTSPDELTRKRVLSVITEPILPFER
For B1, the Michaelis constant (Km) in series [7] was 2830 µM.

B2: Arachis hypogaea isoprene synthase (A. hypogaea IspS), SEQ ID NO: 3 (Arachis hypogaea) (protein)
chain: MNTRRSANYQPNLWDFEFLQSVENDLQVERLEERARKLEEEVRGLMKKVEIEPLSLLELMDNVERLGLTYKFEEDIKSALNNRIVPLLHHHTINKYGLHATALSFRFLRQHAFHVSPDVFESFKEEGKFKKEISGDVLGLLNLYETSYLGFEGETILDEARAFSATHLKNLLQTNQVQNKVMAEKVRHALELPYHRRVHRLEARWFIERYEQKEAHDGALLELAKLDFNMVQSVMKKELQELSRWWREIGLTSKLDFVRDRLMEVYFWALGMAPHPQLTECRKAVTKMFGLVTIIDDVYDVYGTLDELQLFTDAVDRWDVNAVETLPDYMKLCYLALYNSVNDTAYSTLREKGDNSLPHLAKSWRDLCKAFLQEAKWSNNKIIPPFDAYIRNASVSSSGGALLAPCYFSVTQDSTSQAIDSITNYHGIVRSSCAIFRLCNDLATSAAELERGETTNSITSYMTENGTTEEEARESLGKLIDQEWKKMNRDVVLESAYPNVFKEIAINMARVSHCTYQYGDGLGRPDDTAENRIKLSLIEPIPIN
As to B2, in series [7], the Km is 18300 µM.
